{
  "source": "PubChem BioAssay (NCI)",
  "test_in_all_cases": "inhibition of tumour cell growth, NCI panel, 48 h",
  "key": {"A498 renal": {"system": "A498 renal"}, "M14 melanoma": {"system": "M14 melanoma"}, "MDA-N": {"system": "MDA-N"}, "HOP-62 NSCLC": {"system": "HOP-62 NSCLC"}, "PC-3 prostate": {"system": "PC-3 prostate"}, "HCT-15 colon": {"system": "HCT-15 colon"}, "OVCAR-3 ovarian": {"system": "OVCAR-3 ovarian"}, "U251 CNS": {"system": "U251 CNS"}, "HT29 colon": {"system": "HT29 colon"}, "HCC-2998 colon": {"system": "HCC-2998 colon"}, "SN12C renal": {"system": "SN12C renal"}, "KM12 colon": {"system": "KM12 colon"}, "DU-145 prostate": {"system": "DU-145 prostate"}},
  "note": "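Grown in 96-well plates, cells were treated for 48 hours with each compound at five concentrations. Insufficient inhibition: endpoint recorded as highest concentration tested. TGI marks complete inhibition of growth.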",
  "data": [
    {"smiles": "COc1ccc2c(ccc3c(C(=O)NCCN(C)CCNC(=O)c4cn(C)c5c4ccc4cc(OC)ccc45)cn(C)c32)c1", "values": [
      {"measurement": "TGI", "setting": "A498 renal", "result": "> 100000", "unit": "nM"},
      {"measurement": "TGI", "setting": "M14 melanoma", "result": 3000, "unit": "nM"},
      {"measurement": "TGI", "setting": "MDA-N", "result": 2910, "unit": "nM"},
      {"measurement": "TGI", "setting": "HOP-62 NSCLC", "result": 2750, "unit": "nM"},
      {"measurement": "TGI", "setting": "PC-3 prostate", "result": 2840, "unit": "nM"},
      {"measurement": "TGI", "setting": "HCT-15 colon", "result": 2520, "unit": "nM"},
      {"measurement": "TGI", "setting": "OVCAR-3 ovarian", "result": 2830, "unit": "nM"},
      {"measurement": "TGI", "setting": "U251 CNS", "result": "> 100000", "unit": "nM"},
      {"measurement": "TGI", "setting": "HT29 colon", "result": 2700, "unit": "nM"},
      {"measurement": "TGI", "setting": "HCC-2998 colon", "result": 2790, "unit": "nM"},
      {"measurement": "TGI", "setting": "SN12C renal", "result": 2820, "unit": "nM"},
      {"measurement": "TGI", "setting": "KM12 colon", "result": 3020, "unit": "nM"},
      {"measurement": "TGI", "setting": "DU-145 prostate", "result": 3320, "unit": "nM"}
    ]}
  ]
}
